Patent US9763944B2 (Novartis AG, priority 2008, dated 2017)

Details: GIST patients, 400 or 600 mg/day oral
Method: METHODS: The IM plasma levels were analyzed in a subset of patients (n=73) for whom PK data on day 1 and at steady state (Day 29) was available (n=34 and 39 for 400 and 600 mg/day, respectively). The effect of patients demographics and blood chemistry parameters on IM PK was evaluated using a population PK approach. A relationship between IM plasma exposure and clinical outcome was explored by grouping patients into quartiles according to IM trough levels (Cmin). The clinical outcome parameters evaluated include overall objective responses (OOR=CR+PR+SD), time to progression (TTP), and KIT mutations.

Cc1ccc(NC(=O)c2ccc(CN3CCN(C)CC3)cc2)cc1Nc1nccc(-c2cccnc2)n1 [imatinib, N-{5-[4-(4-methyl-piperazino-methyl)-benzoylamido]-2-methylphenyl}-4-(3-pyridyl)-2-pyrimidine-amine]
inter-patient variability in IM exposure: large inter-patient variability
